Data as given in PMC9289885, “Antimicrobial Peptides against Multidrug-Resistant Pseudomonas aeruginosa Biofilm from Cystic Fibrosis Patients” (Journal of Medicinal Chemistry, 2022).
Read-outs that look alike come from different tables or passages of the source.

How the values were obtained:
[1] = test system: P. aeruginosa CF patient isolates and PAO1; type: cell-based, Pseudomonas aeruginosa; conditions: PAO1, 24 h
Description: The MIC of the peptides was tested as previously described with minor adjustments.[50],[51] Briefly, peptide activity was examined in sterile 96-well polystyrene plates (Bar-Naor BN36010096D). Overnight cultures of P. aeruginosa were washed and resuspended in a BM2 medium. Aliquots of 50 μL of suspended bacteria (1 × 10^6 CFU/mL) were added to 50 μL of BM2 medium containing peptides in serial 2-fold dilutions (final concentration between 0.78 and 50 μM). Plates were incubated for 24 h at 37 °C while being agitated. Inhibition of growth was assessed by absorbance measurements at OD600 using a microplate auto reader. The MIC was defined as the concentration at which 90% inhibition of growth was observed after incubation for 24 h.

in vitro = conditions: pooled CF patient sputum diluted 10-fold with PBS, supernatant, 100 μM peptide, 37 °C
Description: (§1) The peptide stability in CF patient sputum was tested as previously described.[52] Briefly, individual sputum samples from CF patients were pooled and diluted 10-fold with Dulbecco’s phosphate-buffered saline without calcium and magnesium. The suspensions were thoroughly mixed and then centrifuged at 1000 rpm for 10 min. D,L-K6L9 peptides and LL-37 were added to the supernatant to a final concentration of 100 μM, and the mixture was incubated at 37 °C for several time intervals. The reaction was stopped by adding 10 μL of 10% hydrogen chloride (HCl) to the 55 μL mixture. Residual peptide concentrations were determined via RP-HPLC on a Vydac C18 column (Grace Discovery Sciences, Deerfield, IL) using a linear gradient from 20% to 60% ACN in water (both containing 0.1% TFA) for 50 min. Data are presented as a percentage of peptide compared to the mixture without incubation ± standard errors.

CF sputum proteases = assay: in vitro; conditions: human, supernatant of pooled CF patient sputum, diluted 10-fold
Description: as §1

[2] = test system: P. aeruginosa clinical CF isolates biofilm; type: cell-based, Pseudomonas aeruginosa; conditions: 24 h
Description: The biofilm formation assay was performed as described for the MIC assay with some alterations and used either BM2 or CF patient sputum diluted 10-fold with BM2. Plates containing peptides at serial dilutions and bacteria were incubated for 24 h at 37 °C without agitation to allow biofilm formation. Unattached bacteria were then washed from plates, and the plates stained with 0.1% CV, followed by absorbance measurements at OD590 using a microplate auto reader. Data are presented as a percentage of the biofilm biomass compared to biofilm formed by untreated bacteria ± the standard error.

mammalian cells = conditions: cited from earlier work
Description: We investigated the antibiofilm and antimicrobial activities of a series of peptides containing nine leucines and six lysines each, with a net charge of +7 (Table 1).

[3] = test system: P. aeruginosa CF isolates and PAO1; type: cell-based, Pseudomonas aeruginosa; conditions: 10 μM peptide, 1 h, 37 °C
Description: The suspensions were thoroughly mixed, centrifuged at 1000 rpm for 10 min, and filtered with a 0.22 μm filter. Supernatants were stored and used for killing assays and fluorescence microscopy, respectively. Then, 10^6 CFU/mL of P. aeruginosa was added to a 10% diluted sputum supernatant, followed by 10 μM peptides. The mixture was incubated at 37 °C for 1 h and then diluted and plated on freshly made LB agar plates.

CC(C)C[C@H](NC(=O)[C@H](CC(C)C)NC(=O)[C@@H](CCCCN)NC(=O)[C@H](CC(C)C)NC(=O)[C@H](CC(C)C)NC(=O)[C@H](CCCCN)NC(=O)[C@@H](CCCCN)NC(=O)[C@@H](CC(C)C)NC(=O)[C@H](CC(C)C)NC(=O)[C@@H](CCCCN)NC(=O)[C@H](CCCCN)NC(=O)[C@H](CC(C)C)NC(=O)[C@@H](CC(C)C)NC(=O)[C@H](CCCCN)NC(=O)[C@@H](N)CC(C)C)C(N)=O (stereo in doubt) [Amp1D]
MIC [1]: ≤ 3.12 µM
degradation in CF sputum (in vitro; 6 h, RP-HPLC): protected entirely from degradation
metabolised at 48 h, 100 μM (CF sputum proteases): ~30%
inhibition of biofilm formation [2]: ~50%

CC(C)C[C@H](NC(=O)[C@H](CC(C)C)NC(=O)[C@@H](CC(C)C)NC(=O)[C@@H](CC(C)C)NC(=O)[C@H](CC(C)C)NC(=O)[C@@H](CC(C)C)NC(=O)[C@H](CC(C)C)NC(=O)[C@H](CC(C)C)NC(=O)[C@@H](CCCCN)NC(=O)[C@H](CCCCN)NC(=O)[C@@H](N)CCCCN)C(=O)N[C@@H](CC(C)C)C(=O)N[C@H](CCCCN)C(=O)N[C@@H](CCCCN)C(=O)N[C@@H](CCCCN)C(N)=O (stereo in doubt) [Seg5D]
degradation in CF sputum (in vitro; 6 h, RP-HPLC): protected entirely from degradation
metabolised at 48 h, 100 μM (CF sputum proteases): ~30%

CC(C)C[C@H](NC(=O)[C@H](CC(C)C)NC(=O)[C@@H](CC(C)C)NC(=O)[C@H](CC(C)C)NC(=O)[C@H](CCCCN)NC(=O)[C@H](CCCCN)NC(=O)[C@@H](CCCCN)NC(=O)[C@@H](CCCCN)NC(=O)[C@H](CCCCN)NC(=O)[C@@H](CCCCN)NC(=O)[C@H](CC(C)C)NC(=O)[C@H](CC(C)C)NC(=O)[C@@H](CC(C)C)NC(=O)[C@H](CC(C)C)NC(=O)[C@@H](N)CC(C)C)C(N)=O (stereo in doubt) [Seg6D]
MIC [1]: ≤ 12.5 µM
degradation in CF sputum (in vitro; 6 h, RP-HPLC): protected entirely from degradation
metabolised at 24 h, 100 μM (CF sputum proteases): ~30%
metabolised at 48 h, 100 μM (CF sputum proteases): ~30%

CC(C)C[C@H](NC(=O)[C@H](CC(C)C)NC(=O)[C@H](CCCCN)NC(=O)[C@H](CC(C)C)NC(=O)[C@H](CC(C)C)NC(=O)[C@H](CCCCN)NC(=O)[C@H](CCCCN)NC(=O)[C@H](CC(C)C)NC(=O)[C@H](CC(C)C)NC(=O)[C@H](CCCCN)NC(=O)[C@H](CCCCN)NC(=O)[C@H](CC(C)C)NC(=O)[C@H](CC(C)C)NC(=O)[C@H](CCCCN)NC(=O)[C@@H](N)CC(C)C)C(N)=O [Amp1L]
metabolised at 3 h, 100 μM (CF sputum proteases): ~70%
metabolised at 6 h, 100 μM (CF sputum proteases): ~80%
toxicity to mammalian cells (mammalian cells): toxic to mammalian cells

CC[C@H](C)[C@H](NC(=O)[C@H](CCCCN)NC(=O)[C@H](CCC(=O)O)NC(=O)[C@H](CCCCN)NC(=O)[C@H](CO)NC(=O)[C@H](CCCCN)NC(=O)[C@H](CCCNC(=N)N)NC(=O)[C@H](Cc1ccccc1)NC(=O)[C@H](Cc1ccccc1)NC(=O)[C@H](CC(=O)O)NC(=O)CNC(=O)[C@H](CC(C)C)NC(=O)[C@@H](N)CC(C)C)C(=O)NCC(=O)N[C@@H](CCCCN)C(=O)N[C@@H](CCC(=O)O)C(=O)N[C@@H](Cc1ccccc1)C(=O)N[C@@H](CCCCN)C(=O)N[C@@H](CCCNC(=N)N)C(=O)N[C@H](C(=O)N[C@H](C(=O)N[C@@H](CCC(N)=O)C(=O)N[C@@H](CCCNC(=N)N)C(=O)N[C@H](C(=O)N[C@@H](CCCCN)C(=O)N[C@@H](CC(=O)O)C(=O)N[C@@H](Cc1ccccc1)C(=O)N[C@@H](CC(C)C)C(=O)N[C@@H](CCCNC(=N)N)C(=O)N[C@@H](CC(N)=O)C(=O)N[C@@H](CC(C)C)C(=O)N[C@H](C(=O)N1CCC[C@H]1C(=O)N[C@@H](CCCNC(=N)N)C(=O)N[C@H](C(=O)N[C@@H](CCC(=O)O)C(=O)N[C@@H](CO)C(N)=O)[C@@H](C)O)C(C)C)[C@@H](C)CC)C(C)C)[C@@H](C)CC [LL-37, reference compound]
degradation in CF sputum (in vitro; 30 min, residual peptide by RP-HPLC vs no incubation): fully degraded
killing rate ([3]; PAO1, 10% mixed CF sputum, 10^6 CFU/mL, colony count vs untreated): 11.48%
killing rate ([3]; control isolate 895 in 895 CF diluted sputum): 97.57%
killing rate ([3]; isolate 24, 10% mixed CF sputum, 10^6 CFU/mL, colony count vs untreated): 13.23%
killing rate ([3]; isolate 46, 10% mixed CF sputum, 10^6 CFU/mL, colony count vs untreated): 11.73%
killing rate ([3]; isolate 82, 10% mixed CF sputum, 10^6 CFU/mL, colony count vs untreated): 34.24%
